Reference: patent US20220400703A1, “FORMULATIONS FOR TREATMENT OF VIBRIO INFECTIONS” (ARIZONA BOARD OF REGENTS ON BEHALF OF THE UNIVERSITY OF …, priority 2019, published 2022)
Several values for one entry are separate records, joined by “and”; a condition that tells them apart may be missing. Identical values can stand only once. Entries after “also recorded” stand apart in the source; their conditions may differ.

What was measured:
[1] = system: VPAHPND cells; test: Scanning electron microscopy of NE treated VPAHPND cells; format: cell-based, Vibrio parahaemolyticus; details: sub-inhibitory concentration of extract, 24 hr incubation
Protocol: The effect of NEs on bacterial cells was determined by culturing VPAHPND in medium containing NEs and examining the cells under a scanning electron microscope (SEM). The subinhibitory concentration of extracts used in the medium was MIC. The control treatment was VPAHPND grown in the presence of fish oil. Samples were fixed by following a protocol described by Lv et al. (2011) and McQuade et al. (2012) with some modifications. Briefly, 25 μl of 8% glutaraldehyde solution (Electron Microscopy Sciences, Hatfield, Pa.) was added to 200 μl of the overnight culture of bacteria. After 40 minutes of incubation at room temperature, samples were washed three times with 1× phosphate-buffered saline (PBS, pH 7.0). Subsequently, samples were washed with water and stained with 1% osmium tetroxide (Ted Pella, Inc., Redding, Ariz.). Finally, samples were washed in water and dehydrated in a series of ethanol solutions with concentrations ranging from 30% to 90% (v/v). The slides with fixed bacterial cells were mounted, sputter-coated in gold under vacuum, and examined using a […] field emission scanning electron microscope (ANATECH, USA).

[2] = system: Vibrio parahaemolyticus (Strain A3); test: Minimum inhibitory concentration (MIC) assay in liquid culture (OD600 and colony count); format: cell-based; details: for OD600: 24 hr; for MIC assay results: effective concentration (Example 1): Example 1, liquid culture; for MIC (Example 2): TSB+ liquid culture, OD600 and colony count, 24 h and 48 h; for Extract concentration at which bacterial count is zero / no survivors: viable colony count at 48 h on TSA+ plates
Protocol: Absorbance (OD600) and total colony count (upon plating overnight culture grown in the presence of natural extracts) were employed for screening.
(§1) VPAHPND (13-028/A3) was revived from glycerol stock kept in −80 degrees C. in Aquaculture Pathology Laboratory following a previous publication (Han et al., 2015). Briefly, 800 mL of Tryptic Soy Broth (TSB) containing 2% NaCl (TSB+) medium was prepared and autoclaved. The bacterial stock was thawed on ice and briefly vortexed before transferring 250 μl of the bacterial culture to 5 ml TSB+ in a 50 ml flask. The flask was incubated at 28 degrees C. in a shaker incubator (CORNING, Model LSE) (120 rpm) for 2 h. After the incubation, the broth was transferred into 50 ml TSB+ in a 250 ml flask before incubating at 28 degrees C. in a shaker incubator (120 rpm) for 2 h. After 2 h., the bacterial culture was mixed with 300 ml TSB and incubated for 24 h at 28 degrees C. After 24 h, the optical density (OD) of the culture was measured at 600 nm. Under these culture conditions, the OD values should exceed 2.8. The broth was diluted to 1×10^7 CFU/ml based on the OD reading. A 10-fold serial dilution of the bacterial culture was prepared and the live bacterial count upon overnight growth was determined by plating the culture on Tryptic Soy Agar (TSA) containing 2% NaCl (TSA+) plates.
Initially extracts were diluted up to 50% with diluent fish oil, then a serial dilution of extracts was prepared Concentrations of extracts range between [0.3-0.0937% (v/v)], which was prepared in TSB+ (Tryptic soy broth) medium. The culture medium TSB+ (2 ml) containing NEs was inoculated with 100 μL (approx. 1×10^7 CFU/mL) of an overnight culture of the pathogen and briefly mixed by vortexing before incubating at 28 degrees C. The OD600 values was recorded at 12, 24 and 48 h post-incubation (FIG. 9). In addition, at each time point and for each concentration of the NEs, aliquots of bacterial suspension were inoculated on TSA+plate before incubating overnight at 28 degrees C. The MIC for each NE was determined by recording OD600 values and taking bacterial count. For each NE, the MIC assay was repeated three times on different days, and the average OD600 value was taken to determine the MIC for each concentration of a corresponding NE.

[3] = system: VPAHPND (13-028/A3), AHPND-causing Vibrio parahaemolyticus; test: Paper disk diffusion assay; format: cell-based; details: mean ± SD; for Average diameter of inhibitory zone (mm) CNE 1/16: extract concentration 1/16 (v/v); for Average diameter of inhibitory zone (mm) CNE 1/16 / Average diameter of inhibitory zone (mm) CNE ¼ / Average diameter of inhibitory zone (mm) CNE ½ / Average diameter of inhibitory zone (mm) CNE ⅛: ND: not detected, <7 mm = no antimicrobial activity; for Average diameter of inhibitory zone (mm) CNE ¼: extract concentration ¼ (v/v); for Average diameter of inhibitory zone (mm) CNE ½: extract concentration ½ (v/v), 2 μL on paper disk, TSA+, 28° C., 24 hr; for Average diameter of inhibitory zone (mm) CNE ⅛: extract concentration ⅛ (v/v)
Protocol: as §1
The antibacterial activities of the NEs were tested using a paper disk diffusion assay following a previously published method with some modifications (Mith et al., 2014). Briefly, the extracts were diluted with fish oil (NE01-NE013) or DMSO (NE14 to NE18) at the following concentrations: 1:1, 1:2, 1:4, and 1:8. The VPAHPND (13-028/A3) culture lawns were created on TSA+plates by thoroughly streaking the culture over the entire surface of the plate with a cotton swab. Meanwhile, 2 μL of each concentration of the NEs was soaked on to a paper disk for 15 min before placing in the center of the bacteria inoculated TSA+plates. Fish oil and DMSO were used as controls. For each dilution of the NE two replicates were done. The plates were then incubated at 28° C. for 24 hr. The efficacy of the extract in inhibiting bacterial growth was determined by measuring the diameter of clear zones for each concentration to the nearest millimeter (mm). The diameter of the inhibitory zone <7 mm was considered as having no antimicrobial activity (Mith et al., 2014). The experiments were repeated four times for all 18 NEs, and the average was taken to calculate the diameter of the inhibitory zone.

[4] = system: AHPND-causing Vibrio parahaemolyticus; test: AHPND bioassay: NE05 in diet, immersion challenge (clinical signs, survival, mortality); format: in vivo, Penaeus vannamei; details: for Percent survival: 7 days post-challenge, three independent experiments
Protocol: The efficacy of NE05 in preventing AHPND was evaluated by using an in vivo assay. The NE05 was mixed with a commercially pelleted shrimp diet at concentrations of 20% and 10% (v/w). Commercial diets containing 20% and 10% fish oil were used as controls. The feed was prepared using a standard feed maker (CORNING, Model LSE) and dried in a chemical hood for 24 h at room temperature. The feed was coated with fish oil dried for an additional 12 h to prevent the smell and increase palatability.
Ten 37 L glass tanks were used in this study. Seawater was prepared following a SOP used in Aquaculture Pathology Laboratory. Approximately 800 g of sea salt (Marinex, Baltimore, Md.) was mixed with 30 L of tap water to get 20-25 ppt of salinity. After the marine salt was dissolved, salinity was checked using a refractometer (SPER SCIENTIFIC, Model #300011). The salinity level of the water was adjusted by adding water until the range needed for the study was reached (20-25 ppt). Throughout the experiment, the room temperature was maintained at 29±2 degrees C. using a heater. Before starting the bioassay, the tanks were held for two days without any animal to equilibrate the water temperature to that of the room. The water temperature was maintained at 29±2 degrees C. Each tank was equipped with an air pump having an air capacity of 2.5 liters/min connected to two air stones. One air stone was directly immersed into the tank, and the other one was connected to the filters. Disinfected weight was kept above each air stone. The heater was kept inside the room during the experiment.
(§2) Specific Pathogen Free shrimp (P. vannamei) (avg. weight 1-2 g) were stocked at a density of 10 shrimp/tank. In total there were two treatments and two controls: shrimp fed diet containing 20% NE05, 10% NE05, a positive and a negative control (shrimp fed diet containing fish oil). Each treatment and control had two replicates. Animals in all treatments except the negative control were subjected to an immersion challenge with V. parahaemolyticus. In the negative control tanks, sterilized TSB+ medium was added instead of bacterial suspension. Throughout the experiment, shrimps were fed corresponding diets daily at 5% of their body weight. The experiments were repeated three times. On day 6 post-feeding of the experimental diets, shrimps were challenged with V. parahaemolyticus at a dose of 10^6 CFU/ml (500 ml of V. parahaemolyticus culture grown for 24 h, OD600 of 5). After the bacterial challenge, tanks were monitored several times a day, and mortalities were recorded, and dead shrimps were removed immediately. Hepatopancreas tissue from moribund shrimp was dissected, half of the tissue was preserved in Davidson's fixative for histopathology, while the remaining half of hepatopancreas was stored at −20 degrees C. for PCR detection of V. parahaemolyticus. […] At the termination of the bioassay, average mortality for each treatment was calculated, and one-way ANOVA was performed to determine any significant difference among different treatments. A (p-value <0.05) between treatments was considered significant.

[5] = system: AHPND-causing Vibrio parahaemolyticus; test: Histopathology (H&E) of hepatopancreas of shrimp from the AHPND bioassay; format: in vivo, Penaeus vannamei
Source text: as §2
Moribund shrimp were fixed in Davidson's alcohol-formalin-acetic acid (AFA). The samples were processed, embedded in paraffin, and sectioned ([…]) following a standard protocol (Lightner, 1996). The sections were stained with hematoxylin and eosin (H&E) and examined using a light microscope for histological lesions of AHPND (Tran et al., 2013).

Molecule | Bacterial cell morphology under SEM [1] | MIC assay results: effective concentration (Example 1) [2] [v/v %] | MIC (Example 2) [2] [v/v %] | Extract concentration at which bacterial count is zero / no survivors [2] | Average diameter of inhibitory zone (mm) CNE 1/16 [3] [mm] | Average diameter of inhibitory zone (mm) CNE ¼ [3] [mm] | Average diameter of inhibitory zone (mm) CNE ½ [3] [mm] | Average diameter of inhibitory zone (mm) CNE ⅛ [3] [mm] | also measured
CC(C)=CCCC(C)=CC=O [NE01, Citral] | a few irregular wrinkled cells but also had a lot of intact cells | 0.015 | 0.15 | 0.15 % (v/v) | 7.48 ± 0.42 | 12.53 ± 0.50 | 17.75 ± 1.4 | 9.36 ± 0.58 | OD600 ([2]; extract concentration 0.0983%): 2.5; OD600 ([2]; extract concentration 0.15% (v/v)): zero; Bacterial count ([2]; 48 h, extract concentration 0.0983% (v/v)): 2.5×10^9 CFU/ml
Cc1ccc(C(C)C)cc1O [NE03, Cavacrol] | non-intact lysed cells with possible leaking out of cytoplasmic constituents; also recorded: disruption of cell surface and leaking of cytoplasmic components; also recorded: affected bacterial cell wall resulting in its disruption and leaking of intracellular components | 0.007 | 0.075 | 0.075 % (v/v) | 8.53 ± 0.16 | 16 ± 0.77 | 20.51 ± 0.97 | 13.53 ± 0.42 | –
O=C/C=C/c1ccccc1 [NE05, Trans Cinnamaldehyde] | extensive cell wall damage, and possible leaking out of intracellular components; also recorded: disruption of cell surface and leaking of cytoplasmic components; also recorded: affected bacterial cell wall resulting in its disruption and leaking of intracellular components | 0.002 | 0.02 | 0.02 % (v/v) | 9.36 ± 0.32 | 18.66 ± 0.98 | 26±1.8 | 14.03 ± 0.80 | Mortality by day 3 ([4]; diet containing NE05-10%): 85%; Time at which mortality began post-challenge ([4]; diet containing NE05-10%): 10 h; Percent survival ([4]; diet containing NE05-10%): 15%; Mortality during the first 24 h post-challenge ([4]; diet containing NE05-20%): did not show mortality; Percent survival ([4]; diet containing NE05-20%): 100% and 93%; Mortality by day 2 ([4]; diet containing NE05-20%, thereafter no mortality): 4%; Gross clinical signs of AHPND ([4]; shrimp fed diet containing NE05 at 10%, immersion challenge): appeared clinically similar to the animals fed commercial diet; also recorded: HP appeared pale and gut empty; Histopathology of hepatopancreas ([5]; NE05-10% treatment, 24 h post-challenge): Mild sloughing of epithelial cells in hepatopancreatic tubule; Histopathology of hepatopancreas ([5]; NE05-10% treatment, 48 h post-infection): hallmark of AHPND infection; Histopathology of hepatopancreas ([5]; NE05-20% treatment, 24 & 48 h post-challenge): did not show any lesions that are considered pathognomonic of AHPND; also recorded: showed no lesions that are pathognomonic of AHPND; H&E histological section of HP tissue (FIGS. 19E-19F) ([5]; diet containing NE05-10%, challenged with AHPND): Terminal phase lesions displaying sloughing of necrotic HP tubule epithelial cells; H&E histological section of HP tissue (FIGS. 19G-19H) ([5]; diet containing NE05-20%, challenged with AHPND): Hepatopancreatic tubule appear similar to healthy animals
Doxycycline Hyclate [reference compound] | – | – | – | – | – | – | – | – | Average diameter of inhibitory zone (mm), antibiotic reference standard ([3]; Doxycycline Hyclate 10 μg): 24.43±0.57 mm
